Like-named read-outs stand apart in the source and are kept apart here.
Experiments:
Type in all cases: biochemical
PKBα = PKBα (Homo sapiens, UniProt P31749, S473D); test: Kinase screen: APH-PKBa-S473D assay
Protocol: (§1) Generally, the same procedure was used for all assays. Since the total assay volume was 25.5 microliters, 0.5 microliters of inhibitors at 51× assay concentration were added to the plates before any other addition.
(§2) The basic procedure was to add 0.5 microliters inhibitor/control in DMSO to plate. Fifteen microliters of enzyme/substrate/buffer mix were added and incubated for 5 min. Ten microliters MgATP at the relevant concentration were added and incubated for 30 min. The assay was stopped by adding 5 microliters of 3% orthophosphoric acid. The assay was transferred to a p81 filter plate and read in a scintillation counter of 30 sec/well. Note that this assay procedure was not followed for MKK1, which instead involved a two-step assay, and PKC alpha, which required the addition of lipid vesicles.
APH-PKBa-S473D assay: APH-PKBa-S473D (5-20 mU diluted in 50 mM Tris pH 7.5, 0.1 mM EGTA, 0.1% b-mercaptoethanol, 1 mg/ml BSA) was assayed against a modified Crosstide peptide […] (SEQ ID NO: 4) in a final volume of 25.5 μl containing 50 mM Tris pH 7.5, 0.05% b-mercaptoethanol, 30 μM substrate peptide, 10 mM magnesium acetate and 0.005 mM [33P-g-ATP] (50-1000 cpm/pmole) and incubated for 30 min at room temperature. Assays were stopped by addition of 5 μl of 0.5 M (3%) orthophosphoric acid and then harvested onto P81 Unifilter plates with a wash buffer of 50 mM orthophosphoric acid.

PAK6 = PAK6 (Homo sapiens, UniProt Q9NQU5); test: Kinase screen: PAK6 assay
PAK6, sequence (Q9NQU5 whole entry, species assumed): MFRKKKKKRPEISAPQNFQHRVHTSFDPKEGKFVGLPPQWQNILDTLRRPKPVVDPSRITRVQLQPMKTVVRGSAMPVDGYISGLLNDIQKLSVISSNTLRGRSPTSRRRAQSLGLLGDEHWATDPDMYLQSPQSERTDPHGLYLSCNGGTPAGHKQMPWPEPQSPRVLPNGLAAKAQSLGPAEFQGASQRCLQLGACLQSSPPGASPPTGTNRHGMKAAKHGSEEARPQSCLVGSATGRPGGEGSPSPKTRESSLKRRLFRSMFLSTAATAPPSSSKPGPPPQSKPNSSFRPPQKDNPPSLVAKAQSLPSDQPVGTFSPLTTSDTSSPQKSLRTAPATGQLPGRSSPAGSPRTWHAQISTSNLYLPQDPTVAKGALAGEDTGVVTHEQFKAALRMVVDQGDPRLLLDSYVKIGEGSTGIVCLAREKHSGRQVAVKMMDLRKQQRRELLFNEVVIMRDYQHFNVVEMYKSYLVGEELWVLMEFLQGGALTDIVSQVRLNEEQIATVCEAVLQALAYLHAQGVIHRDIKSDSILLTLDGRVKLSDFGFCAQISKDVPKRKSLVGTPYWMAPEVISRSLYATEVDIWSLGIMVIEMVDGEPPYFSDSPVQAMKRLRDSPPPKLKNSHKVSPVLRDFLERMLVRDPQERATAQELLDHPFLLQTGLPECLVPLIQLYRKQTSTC
Protocol: as §1, §2
PAK6 assay: PAK6 (5-20 mU diluted in 50 mM Tris pH 7.5, 0.1 mM EGTA, 0.1% b-mercaptoethanol, 1 mg/ml BSA) was assayed against a substrate peptide ([…]) (SEQ ID NO: 30) in a final volume of 25.5 μl containing 50 mM Tris pH 7.5, 0.05% b-mercaptoethanol, 300 μM substrate peptide, 10 mM magnesium acetate and 0.02 mM [33P-g-ATP] (50-1000 cpm/pmole) and incubated for 30 min at room temperature. Assays were stopped by addition of 5 μl of 0.5 M (3%) orthophosphoric acid and then harvested onto P81 Unifilter plates with a wash buffer of 50 mM orthophosphoric acid.

p38γ MAPK = target: T1, p38γ MAPK (Homo sapiens, UniProt P53778); test: Kinase screen: SAPK 3/p38g assay
T1 sequence (P53778 1-367): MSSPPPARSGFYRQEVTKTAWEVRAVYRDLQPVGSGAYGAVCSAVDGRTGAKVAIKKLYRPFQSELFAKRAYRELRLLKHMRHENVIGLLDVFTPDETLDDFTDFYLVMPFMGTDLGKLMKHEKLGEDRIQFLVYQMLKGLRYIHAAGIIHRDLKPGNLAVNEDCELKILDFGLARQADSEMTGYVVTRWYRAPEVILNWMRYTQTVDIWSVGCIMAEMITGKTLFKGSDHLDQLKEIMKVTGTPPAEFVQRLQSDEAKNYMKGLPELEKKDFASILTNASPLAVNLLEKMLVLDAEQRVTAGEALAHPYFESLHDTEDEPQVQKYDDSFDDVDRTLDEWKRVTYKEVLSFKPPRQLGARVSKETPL
Protocol: as §1, §2
SAPK 3/p38g assay: SAPK 3/p38g (5-20 mU diluted in 50 mM Tris pH 7.5, 0.1 mM EGTA, 0.1 mM Na3VO4, 0.1% b-mercaptoethanol, 1 mg/ml BSA) was assayed against MBP in a final volume of 25.5 μl containing 25 mM Tris pH 7.5, 0.1 mM EGTA, 0.33 mg/ml MBP, 10 mM magnesium acetate and 0.005 mM [33P-g-ATP] (50-1000 cpm/pmole) and incubated for 30 min at room temperature. Assays were stopped by addition of 5 μl of 0.5 M (3%) orthophosphoric acid and then harvested onto P81 Unifilter plates with a wash buffer of 50 mM orthophosphoric acid.

HIPK2 = HIPK2 (Homo sapiens, UniProt Q9H2X6); test: Kinase screen: HIPK2 assay
HIPK2, sequence (Q9H2X6 whole entry, species assumed): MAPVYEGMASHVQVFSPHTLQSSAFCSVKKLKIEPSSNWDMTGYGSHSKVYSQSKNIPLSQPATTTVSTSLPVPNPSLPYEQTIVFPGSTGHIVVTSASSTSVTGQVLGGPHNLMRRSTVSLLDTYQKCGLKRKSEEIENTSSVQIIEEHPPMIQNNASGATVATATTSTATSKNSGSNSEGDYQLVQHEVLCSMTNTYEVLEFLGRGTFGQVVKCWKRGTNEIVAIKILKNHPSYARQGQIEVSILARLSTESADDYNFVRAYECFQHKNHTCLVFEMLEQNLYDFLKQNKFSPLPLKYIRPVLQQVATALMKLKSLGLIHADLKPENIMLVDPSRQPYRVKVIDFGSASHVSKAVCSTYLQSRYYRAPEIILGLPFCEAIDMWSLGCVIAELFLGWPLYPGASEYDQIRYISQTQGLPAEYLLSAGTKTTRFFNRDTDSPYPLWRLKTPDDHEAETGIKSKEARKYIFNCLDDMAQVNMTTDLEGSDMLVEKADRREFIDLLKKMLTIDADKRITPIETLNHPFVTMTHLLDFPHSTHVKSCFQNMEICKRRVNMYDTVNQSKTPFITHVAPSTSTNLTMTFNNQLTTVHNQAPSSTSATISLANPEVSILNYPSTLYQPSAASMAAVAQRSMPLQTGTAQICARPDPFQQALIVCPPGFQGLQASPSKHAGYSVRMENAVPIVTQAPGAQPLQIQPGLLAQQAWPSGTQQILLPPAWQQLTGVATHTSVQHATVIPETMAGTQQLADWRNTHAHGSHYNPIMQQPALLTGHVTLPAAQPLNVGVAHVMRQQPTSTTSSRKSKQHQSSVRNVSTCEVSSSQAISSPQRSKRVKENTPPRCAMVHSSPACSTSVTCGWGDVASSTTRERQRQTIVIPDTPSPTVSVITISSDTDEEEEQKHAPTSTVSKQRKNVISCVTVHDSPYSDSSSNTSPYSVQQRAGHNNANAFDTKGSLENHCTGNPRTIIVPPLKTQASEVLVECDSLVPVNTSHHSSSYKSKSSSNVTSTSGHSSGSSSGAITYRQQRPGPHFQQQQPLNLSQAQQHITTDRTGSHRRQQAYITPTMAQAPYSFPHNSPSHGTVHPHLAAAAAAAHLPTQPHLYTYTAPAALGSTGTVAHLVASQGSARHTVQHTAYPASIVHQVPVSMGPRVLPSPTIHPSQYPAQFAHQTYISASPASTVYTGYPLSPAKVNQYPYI
Protocol: as §1, §2
HIPK2 assay: 5-20 mU of HIPK2 (diluted in 50 mM Tris (pH 7.5), 0.1 mM EGTA, 1 mg/ml BSA, 0.1%, b-Mercaptoethanol) was assayed against MBP in a final volume of 25.5 μl containing 50 mM Tris (pH 7.5), 0.1 mM EGTA, 0.1%, b-Mercaptoethanol, 0.33 mg/ml MBP, 10 mM magnesium acetate and 0.005 mM [33P-g-ATP] (500-1000 cpm/pmole) and incubated for 30 mins at room temperature. Assays were stopped by addition of 5 μl of 0.5M (3%) orthophosphoric acid. Assays were harvested onto P81 Unifilter plates using a wash buffer of 50 mM orthophosphoric acid.

BTK = BTK (Homo sapiens, UniProt Q06187); test: Kinase screen: BTK assay; details: 10 micromolar compound; for remaining activity at 10 µM: read-out: mean activity remaining (as a percentage of the original activity), BTK
BTK, sequence (Q06187 whole entry, species assumed): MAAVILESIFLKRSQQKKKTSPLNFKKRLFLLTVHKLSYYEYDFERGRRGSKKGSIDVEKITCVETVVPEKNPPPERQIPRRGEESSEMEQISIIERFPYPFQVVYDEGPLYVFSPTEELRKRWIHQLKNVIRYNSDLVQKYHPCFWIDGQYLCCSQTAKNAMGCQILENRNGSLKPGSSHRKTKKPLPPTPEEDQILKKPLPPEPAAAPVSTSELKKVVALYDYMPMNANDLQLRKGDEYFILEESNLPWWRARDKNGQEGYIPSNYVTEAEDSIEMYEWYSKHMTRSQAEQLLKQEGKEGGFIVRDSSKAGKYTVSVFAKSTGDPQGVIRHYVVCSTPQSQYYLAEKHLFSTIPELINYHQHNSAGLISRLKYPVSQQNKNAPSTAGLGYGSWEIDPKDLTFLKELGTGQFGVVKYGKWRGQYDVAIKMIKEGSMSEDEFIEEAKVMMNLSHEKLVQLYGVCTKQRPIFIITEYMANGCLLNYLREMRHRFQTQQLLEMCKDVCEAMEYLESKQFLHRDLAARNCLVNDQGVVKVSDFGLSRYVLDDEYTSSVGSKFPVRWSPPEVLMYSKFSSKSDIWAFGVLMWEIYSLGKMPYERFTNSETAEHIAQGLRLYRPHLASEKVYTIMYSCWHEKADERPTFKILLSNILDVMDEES
Protocol: as §1, §2
(50-1000 cpm/pmole) and incubated for 30 min at room temperature. Assays were stopped by addition of 5 μl of 0.5 M (3%) orthophosphoric acid and then harvested onto P81 Unifilter plates with a wash buffer of 50 mM orthophosphoric acid.

CAMK1 = CAMK1 (Homo sapiens, UniProt Q14012); test: Kinase screen: CAMK-1 assay
Protocol: as §1, §2
CAMK-1 assay: 5-20 mU of CAMK-1 (diluted in 50 mM Tris (pH 7.5), 0.1 mM EGTA, 1 mg/ml BSA, 0.1%, b-Mercaptoethanol) was assayed against substrate peptide ([…]) (SEQ ID NO: 22) in a final volume of 25.5 μl containing 50 mM Tris (pH 7.5), 0.1 mM EGTA, 0.5 mM CaCl2, 0.3 μM calmodulin, 0.1%, b-Mercaptoethanol, 300 μM substrate peptide, 10 mM magnesium acetate and 0.05 mM [33P-g-ATP] (500-1000 cpm/pmole) and incubated for 30 mins at room temperature. Assays were stopped by addition of 5 μl of 0.5M (3%) orthophosphoric acid. Assays were harvested onto P81 Unifilter plates using a wash buffer of 50 mM orthophosphoric acid.

[1] = 0.5 h, 10 micromolar compound, read-out: mean activity remaining (as a percentage of the original activity), PKBa
[2] = 10 micromolar compound, read-out: mean activity remaining (as a percentage of the original activity), PAK6
[3] = 10 micromolar compound, read-out: mean activity remaining (as a percentage of the original activity), p38g MAPK
[4] = 10 micromolar compound, read-out: mean activity remaining (as a percentage of the original activity), HIPK2
[5] = 10 micromolar compound, read-out: mean activity remaining (as a percentage of the original activity), CAMK 1

PKBα, sequence (P31749 118-480 S473D limits assumed, species assumed): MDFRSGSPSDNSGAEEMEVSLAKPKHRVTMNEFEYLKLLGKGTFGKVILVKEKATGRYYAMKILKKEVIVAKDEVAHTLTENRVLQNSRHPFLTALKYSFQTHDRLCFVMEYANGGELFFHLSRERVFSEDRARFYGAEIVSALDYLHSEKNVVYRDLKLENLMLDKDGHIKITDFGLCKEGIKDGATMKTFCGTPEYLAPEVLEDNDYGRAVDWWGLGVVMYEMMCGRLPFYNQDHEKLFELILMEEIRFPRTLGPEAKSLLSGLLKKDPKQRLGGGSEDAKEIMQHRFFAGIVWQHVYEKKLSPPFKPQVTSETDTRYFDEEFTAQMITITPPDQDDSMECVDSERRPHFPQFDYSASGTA

| Structure (SMILES) | remaining activity at 10 µM (PKBα; [1]) | remaining activity at 10 µM (PAK6; [2]) | remaining activity at 10 µM (p38γ MAPK; [3]) | remaining activity at 10 µM (HIPK2; [4]) | remaining activity at 10 µM (BTK) | remaining activity at 10 µM (CAMK1; [5]) | other results |
| --- | --- | --- | --- | --- | --- | --- | --- |
| CC[C@H](CO)Nc1cc(NCc2ccccc2)n2ncc(C(C)C)c2n1 [ICEC0067] | 109% | 78% | 82% | 70% | 84% | 84% | – |
| CC(C)c1cnn2c(NCc3ccccc3F)cc(NCCCCCN)nc12 [ICEC-0232] | – | – | – | – | – | – | mean activity remaining (as a percentage of the original activity), PKBa (PKBα; 10 micromolar compound): 75%; mean activity remaining (as a percentage of the original activity), PAK6 (PAK6; 10 micromolar compound): 85%; mean activity remaining (as a percentage of the original activity), p38g MAPK (p38γ MAPK; 10 micromolar compound): 91%; mean activity remaining (as a percentage of the original activity), HIPK2 (HIPK2; 10 micromolar compound): 49%; mean activity remaining (as a percentage of the original activity), BTK (BTK): 90%; mean activity remaining (as a percentage of the original activity), CAMK 1 (CAMK1; 10 micromolar compound): 29% |
| CC(C)c1cnn2c(NCc3ccccc3)cc(NCCCCCCCN)nc12 [BS-181] | – | – | – | – | – | – | remaining activity at 10 µM (PKBα; PKBα, 10 μM, read-out: Mean Remaining Enzyme Activity (%)): 82%; remaining activity at 10 µM (PAK6; PAK6, 10 μM, read-out: Mean Remaining Enzyme Activity (%)): 95%; remaining activity at 10 µM (p38γ MAPK; p38γ MAPK, 10 μM, read-out: Mean Remaining Enzyme Activity (%)): 108%; remaining activity at 10 µM (HIPK2; HIPK2, 10 μM, read-out: Mean Remaining Enzyme Activity (%)): 88%; remaining activity at 10 µM (CAMK1; CAMK1, 10 μM, read-out: Mean Remaining Enzyme Activity (%)): 48% |
| CC(C)c1cnn2c(NCc3ccccc3)cc(N[C@@H](CO)[C@H](O)CO)nc12 [ICEC0318, (3S)-3-(7-(Benzylamino)-3-isopropylpyrazolo[1,5-a]pyrimidin-5-ylamino)butane-1,2,4-triol] | 103% | 85% | 112% | 73% | 91% | 93% | – |
| C=C[C@H](CO)Nc1cc(NCc2ccccc2)n2ncc(C(C)C)c2n1 [ICEC0065] | 116% | 82% | 108% | 70% | 94% | 89% | – |

— patent US8067424B2, “Selective inhibitors for cyclin-dependent kinases” (Emory University, priority 2007, dated 2011)
